Measured values: ChEMBL document CHEMBL5120836, “Discovery of novel 7,8-dihydropteridine-6(5H)-one-based DNA-PK inhibitors as potential anticancer agents via scaffold hopping strategy” (Eur J Med Chem, 2022)
Activity calls are given as the source filed them. The calls are words filed in the database; no cut-off is given here.

Legend:
in vitro = conditions: human, Caco-2
Description: Efflux ratio of apparent permeability across basolateral to apical side over apical to basolateral side in human Caco-2 cells

HepG2 [1] = assay: Synergistic antiproliferative activity against Doxorubicin-resistant human HepG2 cells assessed as combination index at 200 uM in presence of 0.1 uM doxorubicin by MTT assay; type: functional
HL-60 [2] = assay: Synergistic antiproliferative activity against human HL-60 cells assessed as combination index at 0.5 uM in presence of 0.1 uM doxorubicin by MTT assay; type: functional
HCT-116 [3] = assay: Induction of apoptosis in human HCT-116 cells assessed as late apoptotic cells at 1 uM incubated for 24 hrs by AnnexinV-FITC/PI staining based flow cytometry (reference value: 3.07%); type: functional
MDA-MB-231 [4] = assay: Synergistic antiproliferative activity against human MDA-MB-231 cells assessed as combination index at 0.1 uM in presence of 0.1 uM doxorubicin by MTT assay; type: functional
HCT-116 [5] = assay: Induction of apoptosis in human HCT-116 cells assessed as viable cells at 1 uM incubated for 24 hrs in presence of 100 nM doxorubicin by AnnexinV-FITC/PI staining based flow cytometry (reference value: 93.9%); type: functional; conditions: read-out: Activity
MCF7 = assay: Synergistic antiproliferative activity against human MCF7 cells assessed as combination index at 0.5 uM in presence of 0.1 uM doxorubicin by MTT assay; type: functional
HCT-116 [6] = assay: Disruption of mitochondrial function in human HCT-116 cells assessed as decrease in mitochondrial membrane potential by measuring proportion of cells with red fluorescence at 1 uM incubated for 24 hrs by JC-1 staining based flow cytometry (reference value: 99.4%); type: functional; set-up: scale not given: the % may be the effect or the level left
[7] = Plasma protein binding in rat assessed as free fraction; type: ADME, cell-free
[8] = Toxicity in BALB/c nude mouse xenografted with human HL-60 cells assessed as HCT level at 100 mg/kg, po qd for 16 days (reference value: 66.3%); type: organism-based; conditions: in vivo, 384 h, time 16 day
HCT-116 [9] = assay: Induction of apoptosis in human HCT-116 cells assessed as viable cells at 1 uM incubated for 24 hrs by AnnexinV-FITC/PI staining based flow cytometry (reference value: 93.9%); type: functional; conditions: read-out: Activity
[10] = molecular target: DNA-dependent protein kinase catalytic subunit (Homo sapiens, UniProt P78527); assay: Inhibition of human native full length DNA-PK by ADP-Glo assay
Sequence of DNA-dependent protein kinase catalytic subunit (P78527 whole entry): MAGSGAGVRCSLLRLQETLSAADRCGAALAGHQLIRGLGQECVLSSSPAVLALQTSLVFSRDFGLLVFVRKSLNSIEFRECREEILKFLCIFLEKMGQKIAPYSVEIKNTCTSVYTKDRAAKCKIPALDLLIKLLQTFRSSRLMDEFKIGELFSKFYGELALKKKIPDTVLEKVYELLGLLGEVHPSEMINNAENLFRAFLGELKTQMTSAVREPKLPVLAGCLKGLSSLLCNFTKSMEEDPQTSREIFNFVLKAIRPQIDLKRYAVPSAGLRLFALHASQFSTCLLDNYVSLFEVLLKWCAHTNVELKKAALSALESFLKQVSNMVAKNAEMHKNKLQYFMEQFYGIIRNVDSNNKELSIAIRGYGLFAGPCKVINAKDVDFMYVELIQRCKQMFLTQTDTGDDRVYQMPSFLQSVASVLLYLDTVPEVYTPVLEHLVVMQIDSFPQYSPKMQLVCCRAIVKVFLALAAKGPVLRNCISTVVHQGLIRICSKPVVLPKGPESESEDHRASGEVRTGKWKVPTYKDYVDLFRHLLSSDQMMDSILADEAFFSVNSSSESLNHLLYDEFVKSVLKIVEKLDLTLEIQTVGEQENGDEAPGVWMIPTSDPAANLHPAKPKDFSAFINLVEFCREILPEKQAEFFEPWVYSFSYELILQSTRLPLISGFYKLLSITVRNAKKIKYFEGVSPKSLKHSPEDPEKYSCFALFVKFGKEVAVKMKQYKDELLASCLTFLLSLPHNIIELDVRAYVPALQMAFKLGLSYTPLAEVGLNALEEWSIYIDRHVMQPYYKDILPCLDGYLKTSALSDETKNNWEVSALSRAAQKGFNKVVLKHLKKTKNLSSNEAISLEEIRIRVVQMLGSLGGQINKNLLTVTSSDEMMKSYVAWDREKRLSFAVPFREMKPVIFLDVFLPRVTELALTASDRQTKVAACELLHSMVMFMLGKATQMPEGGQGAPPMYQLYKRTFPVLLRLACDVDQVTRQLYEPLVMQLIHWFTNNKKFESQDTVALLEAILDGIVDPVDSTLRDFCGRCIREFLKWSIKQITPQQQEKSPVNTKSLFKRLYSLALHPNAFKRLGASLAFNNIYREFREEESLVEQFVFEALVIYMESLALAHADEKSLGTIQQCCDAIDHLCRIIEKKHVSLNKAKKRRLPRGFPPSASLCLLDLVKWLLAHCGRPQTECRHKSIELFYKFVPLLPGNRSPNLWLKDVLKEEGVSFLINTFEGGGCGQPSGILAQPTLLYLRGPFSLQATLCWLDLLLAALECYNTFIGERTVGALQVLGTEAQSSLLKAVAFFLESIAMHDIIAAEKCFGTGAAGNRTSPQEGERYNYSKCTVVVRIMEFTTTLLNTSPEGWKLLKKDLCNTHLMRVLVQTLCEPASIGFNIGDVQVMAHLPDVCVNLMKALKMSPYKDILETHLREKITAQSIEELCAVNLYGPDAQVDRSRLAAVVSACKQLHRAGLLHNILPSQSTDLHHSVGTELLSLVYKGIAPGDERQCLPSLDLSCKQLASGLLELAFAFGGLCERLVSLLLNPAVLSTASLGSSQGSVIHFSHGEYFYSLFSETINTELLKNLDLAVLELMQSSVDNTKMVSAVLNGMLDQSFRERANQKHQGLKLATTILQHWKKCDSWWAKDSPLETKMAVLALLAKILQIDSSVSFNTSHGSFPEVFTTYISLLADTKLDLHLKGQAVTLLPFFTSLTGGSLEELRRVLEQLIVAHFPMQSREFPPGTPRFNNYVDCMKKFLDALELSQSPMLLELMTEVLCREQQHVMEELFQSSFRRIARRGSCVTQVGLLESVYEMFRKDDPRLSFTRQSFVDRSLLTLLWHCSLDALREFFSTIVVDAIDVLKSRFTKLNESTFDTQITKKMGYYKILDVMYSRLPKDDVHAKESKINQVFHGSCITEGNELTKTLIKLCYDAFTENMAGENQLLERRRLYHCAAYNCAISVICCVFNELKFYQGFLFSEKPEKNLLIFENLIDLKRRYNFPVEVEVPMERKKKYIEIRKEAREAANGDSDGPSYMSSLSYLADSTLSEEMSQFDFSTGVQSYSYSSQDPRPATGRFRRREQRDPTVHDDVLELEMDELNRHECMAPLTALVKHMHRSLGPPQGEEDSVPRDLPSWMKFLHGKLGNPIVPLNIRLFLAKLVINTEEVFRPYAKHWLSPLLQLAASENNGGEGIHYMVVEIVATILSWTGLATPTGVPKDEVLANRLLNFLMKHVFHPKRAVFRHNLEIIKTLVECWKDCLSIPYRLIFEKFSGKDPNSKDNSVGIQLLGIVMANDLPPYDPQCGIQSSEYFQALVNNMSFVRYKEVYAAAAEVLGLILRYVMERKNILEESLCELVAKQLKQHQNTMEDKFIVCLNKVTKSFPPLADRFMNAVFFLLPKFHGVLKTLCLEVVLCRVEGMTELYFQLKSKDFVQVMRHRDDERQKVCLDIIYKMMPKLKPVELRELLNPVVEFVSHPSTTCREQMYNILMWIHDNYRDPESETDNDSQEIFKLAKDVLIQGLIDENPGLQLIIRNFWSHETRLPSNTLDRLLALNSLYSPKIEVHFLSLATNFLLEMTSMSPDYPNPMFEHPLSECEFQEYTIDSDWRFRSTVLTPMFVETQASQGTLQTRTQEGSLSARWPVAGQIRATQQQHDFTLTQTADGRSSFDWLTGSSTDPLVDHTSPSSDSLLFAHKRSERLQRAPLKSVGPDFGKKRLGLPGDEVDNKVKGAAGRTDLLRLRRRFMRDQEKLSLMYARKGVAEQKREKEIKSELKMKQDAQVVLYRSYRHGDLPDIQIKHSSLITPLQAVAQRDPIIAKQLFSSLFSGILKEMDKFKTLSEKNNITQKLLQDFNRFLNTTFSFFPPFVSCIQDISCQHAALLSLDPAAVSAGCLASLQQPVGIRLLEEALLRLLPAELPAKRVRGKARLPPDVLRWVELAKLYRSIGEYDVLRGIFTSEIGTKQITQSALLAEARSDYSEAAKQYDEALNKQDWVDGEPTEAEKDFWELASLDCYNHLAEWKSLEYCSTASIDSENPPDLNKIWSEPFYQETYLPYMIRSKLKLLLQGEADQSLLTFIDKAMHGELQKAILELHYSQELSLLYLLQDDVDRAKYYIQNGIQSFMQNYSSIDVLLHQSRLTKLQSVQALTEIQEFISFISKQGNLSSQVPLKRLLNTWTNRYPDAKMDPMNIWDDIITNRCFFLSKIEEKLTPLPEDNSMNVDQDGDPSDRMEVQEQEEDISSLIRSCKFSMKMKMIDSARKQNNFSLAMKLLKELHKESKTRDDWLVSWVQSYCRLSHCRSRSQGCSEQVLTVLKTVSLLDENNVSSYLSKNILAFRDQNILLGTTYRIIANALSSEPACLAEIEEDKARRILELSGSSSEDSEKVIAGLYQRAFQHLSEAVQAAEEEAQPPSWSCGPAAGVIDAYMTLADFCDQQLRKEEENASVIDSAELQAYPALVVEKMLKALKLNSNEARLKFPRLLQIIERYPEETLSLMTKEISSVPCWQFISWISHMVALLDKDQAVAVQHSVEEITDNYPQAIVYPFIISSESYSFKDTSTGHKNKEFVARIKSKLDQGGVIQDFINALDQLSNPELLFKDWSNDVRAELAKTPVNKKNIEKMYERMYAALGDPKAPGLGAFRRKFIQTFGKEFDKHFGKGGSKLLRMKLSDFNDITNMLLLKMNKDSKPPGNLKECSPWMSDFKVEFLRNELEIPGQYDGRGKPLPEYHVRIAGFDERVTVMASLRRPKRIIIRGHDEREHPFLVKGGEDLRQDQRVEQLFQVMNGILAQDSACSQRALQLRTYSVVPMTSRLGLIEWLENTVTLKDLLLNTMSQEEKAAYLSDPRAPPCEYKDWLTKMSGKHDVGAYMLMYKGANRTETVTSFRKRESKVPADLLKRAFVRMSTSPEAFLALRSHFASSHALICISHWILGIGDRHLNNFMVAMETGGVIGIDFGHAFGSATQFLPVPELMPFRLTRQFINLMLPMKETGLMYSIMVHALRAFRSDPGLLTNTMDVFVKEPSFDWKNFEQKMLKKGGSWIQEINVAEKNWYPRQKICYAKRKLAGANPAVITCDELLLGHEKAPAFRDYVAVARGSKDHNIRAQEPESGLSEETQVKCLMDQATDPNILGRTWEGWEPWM

[11] = Toxicity in BALB/c nude mouse xenografted with human HL-60 cells assessed as heart morphological alterations at 100 mg/kg, po qd for 16 days by Hematoxylin and Eosin staining based analysis; type: organism-based; conditions: in vivo, 384 h, time 16 day
[12] = AUC (0 to infinity) in Sprague-Dawley rat at 5 mg/kg, po; type: ADME, organism-based; set-up: time infinity, dose 5 mg/kg, route po; conditions: in vivo
HCT-116 [13] = assay: Synergistic antiproliferative activity against human HCT-116 cells assessed as combination index at 100 uM incubated for 48 hrs in presence of 0.1 to 50 uM doxorubicin by MTT assay; type: functional
HL-60 [14] = assay: Synergistic antitumor activity against human HL-60 cells xenografted in BALB/c nude mouse assessed as tumor volume at 100 mg/kg, po qd for 16 days co-administered with doxorubicin (reference value: 32.2%); type: functional; conditions: HL-60, 384 h, time 16 day
HCT-116 [15] = assay: Antiproliferative activity against human HCT-116 cells assessed as inhibition of cell growth incubated for 48 hrs by MTT assay; type: functional, cell-based; conditions: HCT-116, 48 h
[16] = Toxicity in BALB/c nude mouse xenografted with human HL-60 cells assessed as PDW level at 100 mg/kg, po qd for 16 days (reference value: 8.16 fL); type: organism-based; conditions: in vivo, 384 h, time 16 day
MDA-MB-231 [17] = assay: Synergistic antiproliferative activity against human MDA-MB-231 cells assessed as combination index at 25 uM in presence of 0.1 uM doxorubicin by MTT assay; type: functional
MDA-MB-231 [18] = assay: Synergistic antiproliferative activity against human MDA-MB-231 cells assessed as combination index at 3.1 uM in presence of 0.1 uM doxorubicin by MTT assay; type: functional
[19] = Toxicity in BALB/c nude mouse xenografted with human HL-60 cells assessed as platelets level at 100 mg/kg, po qd for 16 days (reference value: 738.5X10^9/L); type: organism-based; conditions: in vivo, 384 h, time 16 day
HCT-116 [20] = assay: Induction of cell cycle arrest in human HCT-116 cells assessed as increase in accumulation of cells at […] at 1 uM incubated for 24 hrs in presence of 100 nM doxorubicin by PI staining based flow cytometry; type: functional
HCT-116 [21] = assay: Induction of apoptosis in human HCT-116 cells assessed as late apoptotic cells at 1 uM incubated for 24 hrs in presence of 100 nM doxorubicin by AnnexinV-FITC/PI staining based flow cytometry (reference value: 3.07%); type: functional
HepG2 [22] = assay: Synergistic antiproliferative activity against Doxorubicin-resistant human HepG2 cells assessed as combination index at 0.5 uM in presence of 0.1 uM doxorubicin by MTT assay; type: functional
[23] = Lipophilicity, logP of the compound; type: physicochemical; conditions: octanol/water
HCT-116 [24] = assay: Induction of apoptosis in human HCT-116 cells assessed as early apoptotic cells at 1 uM incubated for 24 hrs by AnnexinV-FITC/PI staining based flow cytometry (reference value: 3.04%); type: functional
HL-60 [25] = assay: Synergistic antiproliferative activity against human HL-60 cells assessed as combination index at 3.1 uM in presence of 0.1 uM doxorubicin by MTT assay; type: functional
HCT-116 [26] = assay: Induction of apoptosis in human HCT-116 cells assessed as early apoptotic cells at 1 uM incubated for 24 hrs in presence of 100 nM doxorubicin by AnnexinV-FITC/PI staining based flow cytometry (reference value: 3.04%); type: functional
HL-60 [27] = assay: Synergistic antiproliferative activity against human HL-60 cells assessed as combination index at 6.25 uM in presence of 0.1 uM doxorubicin by MTT assay; type: functional
HCT-116 [28] = assay: Antiproliferative activity against human HCT-116 cells assessed as inhibition of cell growth incubated for 48 hrs in presence of 100 nM doxorubicin by MTT assay; type: functional, cell-based; conditions: HCT-116, 48 h
[29] = Toxicity in BALB/c nude mouse xenografted with human HL-60 cells assessed as PCT level at 100 mg/kg, po qd for 16 days (reference value: 0.7%); type: organism-based; conditions: in vivo, 384 h, time 16 day
[30] = Intrinsic clearance in human liver microsomes; type: ADME, Microsome; conditions: read-out: CLH
HCT-116 [31] = assay: Induction of apoptosis in human HCT-116 cells assessed as necrotic cells at 1 uM incubated for 24 hrs in presence of 100 nM doxorubicin by AnnexinV-FITC/PI staining based flow cytometry (reference value: 0.031%); type: functional
HL-60 [32] = assay: Synergistic antiproliferative activity against human HL-60 cells assessed as combination index at 50 uM in presence of 0.1 uM doxorubicin by MTT assay; type: functional
HCT-116 [33] = assay: Synergistic antiproliferative activity against human HCT-116 cells assessed as combination index at 1 uM in presence of 100 nM doxorubicin by MTT assay; type: functional
MDA-MB-231 [34] = assay: Synergistic antiproliferative activity against human MDA-MB-231 cells assessed as combination index at 1 uM in presence of 0.1 uM doxorubicin by MTT assay; type: functional
[35] = Toxicity in BALB/c nude mouse xenografted with human HL-60 cells assessed as MCHC level at 100 mg/kg, po qd for 16 days (reference value: 246 g/L); type: organism-based; conditions: in vivo, 384 h, time 16 day

Work on `Cc1cc2ncnn2cc1Nc1ncc2c(n1)N(C1CCOCC1)CC(=O)N2C` yielded an efflux ratio (in vitro) of 4.84, a CI (HepG2 [1]) of 0.2062 and a CI (HL-60 [2]) of 0.00341. It also gave an Activity (HCT-116 [3]) of 4.05%, a CI (MDA-MB-231 [4]) of 0.4431 and a viability at 1 µM (HCT-116 [5]) of 79.1%. The CI (MCF7) was 0.04646, the Activity (HCT-116 [6]) was 96.4% and the fraction unbound [7] was 0.667. The Activity [8] was 65.1%, the viability at 1 µM (HCT-116 [9]) was 92.5% and the IC50 [10] was 0.0008 µM. For the same compound, the Activity [11] was “Non-Toxic”, the AUC(0-inf) [12] was 3600 ng·h/mL and the CI (HCT-116 [13]) was less than 0.1. It also gave an inhibition in vivo at 100 mg/kg (HL-60 [14]) of 62.4%, an IC50 (HCT-116 [15]) of 24.1 µM and an Activity [16] of 7.4 fL. For the same compound, the CI (MDA-MB-231 [17]) was 0.5933, the CI (MDA-MB-231 [18]) was 0.3259 and the Activity [19] was 750 10^9/L. For the same compound, the Activity (HCT-116 [20]) was “Active”, the Activity (HCT-116 [21]) was 7.51% and the CI (HepG2 [22]) was 0.01657. It also gave a logP [23] of 1.28, an Activity (HCT-116 [24]) of 3.46% and a CI (HL-60 [25]) of 0.01772. It also gave an Activity (HCT-116 [26]) of 13.3%, a CI (HL-60 [27]) of 0.03585 and an IC50 (HCT-116 [28]) of 17.1 µM. For the same compound, the Activity [29] was 0.641%, the microsomal CLint [30] was less than 9.6 µL/min/mg and the Activity (HCT-116 [31]) was 0.002%. It also gave a CI (HL-60 [32]) of 0.2758, a CI (HCT-116 [33]) of 0.74 and a CI (MDA-MB-231 [34]) of 0.2676. For the same compound, the Activity [35] was 249 g/L.
